Measured values from PubChem BioAssay (NCI).
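Values below derive from 48-hour exposures of cells grown in 96-well plates, with endpoints linearly interpolated between the two concentrations bracketing the appropriate inhibition level. Abbreviation: GI50, concentration required for 50% inhibition of growth. At the TGI there is no net growth.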

What was measured:
Test in all cases: growth of human tumour cells (NCI), 48 h
[1] = system: 786-0 renal
[2] = system: A498 renal
[3] = system: A549 NSCLC
[4] = system: ACHN renal
[5] = system: BT-549 breast
[6] = system: CAKI-1 renal
[7] = system: CCRF-CEM leukemia
[8] = system: COLO 205 colon
[9] = system: DU-145 prostate
[10] = system: HCC-2998 colon
[11] = system: HCT-116 colon
[12] = system: HCT-15 colon
[13] = system: HL-60(TB) leukemia
[14] = system: HOP-62 NSCLC
[15] = system: HOP-92 NSCLC
[16] = system: HS 578T breast
[17] = system: HT29 colon
[18] = system: IGROV1 ovarian
[19] = system: K-562 leukemia
[20] = system: KM12 colon
[21] = system: LOX IMVI melanoma
[22] = system: M14 melanoma
[23] = system: MALME-3M melanoma
[24] = system: MCF7 breast
[25] = system: MDA-MB-231 breast
[26] = system: MDA-MB-435
[27] = system: MOLT-4 leukemia
[28] = system: NCI-H226 lung
[29] = system: NCI-H23 lung
[30] = system: NCI-H460 lung
[31] = system: NCI-H522 lung
[32] = system: NCI/ADR-RES ovarian
[33] = system: OVCAR-3 ovarian
[34] = system: OVCAR-4 ovarian
[35] = system: OVCAR-5 ovarian
[36] = system: OVCAR-8 ovarian
[37] = system: PC-3 prostate
[38] = system: RPMI-8226 leukemia
[39] = system: RXF 393 renal
[40] = system: SF-268 CNS
[41] = system: SF-295 CNS
[42] = system: SF-539 CNS
[43] = system: SK-MEL-2 melanoma
[44] = system: SK-MEL-28 melanoma
[45] = system: SK-MEL-5 melanoma
[46] = system: SK-OV-3 ovarian
[47] = system: SN12C renal
[48] = system: SNB-19 CNS
[49] = system: SNB-75 CNS
[50] = system: SR leukemia
[51] = system: SW-620 colon
[52] = system: T-47D breast
[53] = system: TK-10 renal
[54] = system: U251 CNS
[55] = system: UACC-257 melanoma
[56] = system: UACC-62 melanoma
[57] = system: UO-31 renal

CC(C)(C)c1[nH]nc2c1C(c1cc3ccccc3[nH]c1=O)Nc1cc(C(=O)Nc3ccc(Cl)cc3)ccc1N2 (centres undefined)
GI50 [1]: 2.3 µM | TGI [1]: 5.54 µM | GI50 [2]: 1.58 µM | TGI [2]: 3.8 µM | GI50 [3]: 4.66 µM | TGI [3]: > 100 µM | GI50 [4]: 4.71 µM | TGI [4]: > 64.7 µM | GI50 [5]: 2.37 µM | TGI [5]: 6.65 µM | GI50 [6]: > 100 µM | TGI [6]: > 100 µM | GI50 [7]: 2.16 µM | TGI [7]: > 21.6 µM | GI50 [8]: 2.88 µM | TGI [8]: 6.46 µM | GI50 [9]: 4.26 µM | TGI [9]: > 48.4 µM | GI50 [10]: 2.64 µM | TGI [10]: 6.52 µM | GI50 [11]: 3.11 µM | TGI [11]: 10.7 µM | GI50 [12]: > 28.8 µM | TGI [12]: > 100 µM | GI50 [13]: 2.33 µM | TGI [13]: 5.64 µM | GI50 [14]: 3.14 µM | TGI [14]: 10 µM | GI50 [15]: 2.03 µM | TGI [15]: 6.05 µM | GI50 [16]: 2.38 µM | TGI [16]: > 28.8 µM | GI50 [17]: 3.46 µM | TGI [17]: 13 µM | GI50 [18]: 3.28 µM | TGI [18]: 8.95 µM | GI50 [19]: 2.94 µM | TGI [19]: > 54.9 µM | GI50 [20]: 3.33 µM | TGI [20]: 16.2 µM | GI50 [21]: 2.98 µM | TGI [21]: 9.21 µM | GI50 [22]: 2.12 µM | TGI [22]: 4.75 µM | GI50 [23]: 1.92 µM | TGI [23]: 4.41 µM | GI50 [24]: 2.55 µM | TGI [24]: 15.3 µM | GI50 [25]: 2.26 µM | TGI [25]: 6.32 µM | GI50 [26]: 1.84 µM | TGI [26]: 4.84 µM | GI50 [27]: 2.32 µM | TGI [27]: 7.91 µM | GI50 [28]: 2.94 µM | TGI [28]: 11.1 µM | GI50 [29]: 2.6 µM | TGI [29]: 7.31 µM | GI50 [30]: 3.21 µM | TGI [30]: 18.2 µM | GI50 [31]: 2.71 µM | TGI [31]: 6.94 µM | GI50 [32]: > 100 µM | TGI [32]: > 100 µM | GI50 [33]: 1.93 µM | TGI [33]: 3.82 µM | GI50 [34]: 2.12 µM | TGI [34]: 6.96 µM | GI50 [35]: 3.84 µM | TGI [35]: 39 µM | GI50 [36]: 3.04 µM | TGI [36]: 11 µM | GI50 [37]: 3.15 µM | TGI [37]: 11.7 µM | GI50 [38]: 1.9 µM | TGI [38]: 5.27 µM | GI50 [39]: 1.94 µM | TGI [39]: 3.7 µM | GI50 [40]: 3.66 µM | TGI [40]: 29.5 µM | GI50 [41]: 2.77 µM | TGI [41]: 8.82 µM | GI50 [42]: 2.34 µM | TGI [42]: 6.49 µM | GI50 [43]: 2 µM | TGI [43]: 4.05 µM | GI50 [44]: 3.76 µM | TGI [44]: 21.5 µM | GI50 [45]: 1.77 µM | TGI [45]: 3.55 µM | GI50 [46]: 3.04 µM | TGI [46]: 8.01 µM | GI50 [47]: 3.15 µM | TGI [47]: 14 µM | GI50 [48]: 2.68 µM | TGI [48]: 11.9 µM | GI50 [49]: 2.27 µM | TGI [49]: 6.51 µM | GI50 [50]: 2.56 µM | TGI [50]: > 24.9 µM | GI50 [51]: 3.13 µM | TGI [51]: 12.3 µM | GI50 [52]: 2.5 µM | TGI [52]: 9.14 µM | GI50 [53]: 3.71 µM | TGI [53]: 17.2 µM | GI50 [54]: 3.08 µM | TGI [54]: 11.4 µM | GI50 [55]: 2.33 µM | TGI [55]: 7.31 µM | GI50 [56]: 2.03 µM | TGI [56]: 4.41 µM | GI50 [57]: 46 µM | TGI [57]: > 100 µM
